Laboratory results reported in US20120270954A1, “METHODS FOR MAINTAINING EYE HEALTH AND AMELIORATING OPTHALMIC MALADIES IN CANINES” (priority 2009, published 2012).
Read-outs that look alike come from different tables or passages of the source.

Key:
[1] = type: in vivo; conditions: for Antioxidant level in Cortical/Epithelial Layer (C) of dog lens / Antioxidant level in Nuclear Layer (N) of dog lens: lenses of seven dogs
Procedure: Eye samples were collected from seven (7) dogs. Eye balls were removed within 1 hour of death at necropsy, stored in individual containers at 4° C., and stored on wet ice for dissection within one day. The eyes were dissected to take out lenses. The lenses were separated into two layers: (1) an outer, soft cortical/epithelial layer and (2) an inner, hard nuclear layer. The layers were analyzed for carotenoids, vitamin C, and vitamin E following standard procedures given in Craft N E, Haitema T B, Garnett K M, Fitch K A, Dorey C K. Carotenoid, tocopherol, and retinol concentrations in elderly human brain. J Nutr. Health Aging 2004; 8:156-62.

[2] = previous studies, humans regularly consume β-carotene in their diets; cited from earlier work

| Compound | Antioxidant level in Cortical/Epithelial Layer (C) of dog lens [1] | Antioxidant level in Nuclear Layer (N) of dog lens ([1]; nuclear layer) | detection or accumulation in human lenses [2] | β-Carotene concentration in lens layer ([1]; Dog 1, BEA, M/n, age 15.50, layer N) | β-Carotene concentration in lens layer ([1]; Dog 2, BEA, M/n, age 13.55, layer C) | β-Carotene concentration in lens layer ([1]; Dog 2, BEA, M/n, age 13.55, layer N) | β-Carotene concentration in lens layer ([1]; Dog 3, LAB, F/s, age 13.41, layer C) | β-Carotene concentration in lens layer ([1]; Dog 3, LAB, F/s, age 13.41, layer N) | β-Carotene concentration in lens layer ([1]; Dog 4, LAB, M/n, age 14.22, layer C) | β-Carotene concentration in lens layer ([1]; Dog 4, LAB, M/n, age 14.22, layer N) | β-Carotene concentration in lens layer ([1]; Dog 5, Man T, F/s, age 12.79, layer C) | β-Carotene concentration in lens layer ([1]; Dog 5, Man T, F/s, age 12.79, layer N) | β-Carotene concentration in lens layer ([1]; Dog 6, SIB HUSKY, M/n, age 6.10, layer C) | β-Carotene concentration in lens layer ([1]; Dog 6, SIB HUSKY, M/n, age 6.10, layer N) | β-Carotene concentration in lens layer ([1]; Dog 7, LAB, F/s, age 9.31, layer C) | β-Carotene concentration in lens layer ([1]; Dog 7, LAB, F/s, age 9.31, layer N) | cortical layer samples that accumulated β-carotene ([1]; dog lens, cortical layer, seven dogs) | nuclear layer samples that accumulated β-carotene ([1]; dog lens, nuclear layer, seven dogs) |
| --- | --- | --- | --- | --- | --- | --- | --- | --- | --- | --- | --- | --- | --- | --- | --- | --- | --- | --- |
| O=C1O[C@H]([C@@H](O)CO)C(O)=C1O [Vitamin C, vitamin C] | 112.38 µg/g | 23.59 µg/g |  |  |  |  |  |  |  |  |  |  |  |  |  |  |  |  |
| CC1=C(/C=C/C(C)=C/C=C/C(C)=C/C=C/C=C(C)/C=C/C=C(C)/C=C/C2=C(C)CCCC2(C)C)C(C)(C)CCC1 [β-Carotene, β-carotene] | 0.00174 µg/g | 0.00274 µg/g | not detected or accumulated in human lenses | 0.79 ng/g | 1.06 ng/g | 0.60 ng/g | 0.73 ng/g | 1.26 ng/g | 0.71 ng/g | 0.79 ng/g | 1.35 ng/g | 1.60 ng/g | 4.26 ng/g | 8.17 ng/g | 2.35 ng/g | 5.99 ng/g | six out of seven cortical layer samples accumulated | all nuclear layer samples accumulated |
| vitamin E | 0.93 µg/g | 0.64 µg/g |  |  |  |  |  |  |  |  |  |  |  |  |  |  |  |  |
